Experimental data: paper PMC10255489, “Targeting Anti-Inflammatory Pathways to Treat Diabetes-Induced Neuropathy by 6-Hydroxyflavanone” (Nutrients, 2023)

Legend:
5-lipoxygenase (5-LOX) = target: T1, 5-lipoxygenase (5-LOX) (Homo sapiens, UniProt P09917); test: UV ([…] nm) linoleic acid to HPOD assay, human recombinant 5-LOX; type: biochemical
T1 construct: gene ALOX5
T1 sequence (P09917 1-674): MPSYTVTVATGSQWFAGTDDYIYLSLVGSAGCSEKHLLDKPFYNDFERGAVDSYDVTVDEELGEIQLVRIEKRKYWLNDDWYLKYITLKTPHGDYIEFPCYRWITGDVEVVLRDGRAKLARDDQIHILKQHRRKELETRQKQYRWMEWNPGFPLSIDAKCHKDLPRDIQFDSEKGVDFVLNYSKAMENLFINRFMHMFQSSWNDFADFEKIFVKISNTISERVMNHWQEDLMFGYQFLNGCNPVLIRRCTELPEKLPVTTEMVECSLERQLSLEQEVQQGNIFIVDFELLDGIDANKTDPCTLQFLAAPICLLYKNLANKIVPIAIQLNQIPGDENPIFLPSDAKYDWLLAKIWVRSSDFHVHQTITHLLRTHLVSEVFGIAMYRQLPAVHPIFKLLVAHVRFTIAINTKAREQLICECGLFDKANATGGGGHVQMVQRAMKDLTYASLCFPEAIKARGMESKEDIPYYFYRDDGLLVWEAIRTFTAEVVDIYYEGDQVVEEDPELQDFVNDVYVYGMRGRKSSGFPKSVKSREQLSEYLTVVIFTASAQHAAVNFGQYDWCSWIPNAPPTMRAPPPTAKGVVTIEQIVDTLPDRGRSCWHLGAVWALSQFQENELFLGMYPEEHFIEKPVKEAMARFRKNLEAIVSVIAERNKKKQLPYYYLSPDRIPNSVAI

cyclooxygenase-2 (COX-2) = target: T2, cyclooxygenase-2 (COX-2) (Homo sapiens, UniProt P35354); test: colorimetric COX inhibitor screening assay (Cayman […]), human recombinant COX-2
T2 construct: gene PTGS2
T2 sequence (P35354 18-604): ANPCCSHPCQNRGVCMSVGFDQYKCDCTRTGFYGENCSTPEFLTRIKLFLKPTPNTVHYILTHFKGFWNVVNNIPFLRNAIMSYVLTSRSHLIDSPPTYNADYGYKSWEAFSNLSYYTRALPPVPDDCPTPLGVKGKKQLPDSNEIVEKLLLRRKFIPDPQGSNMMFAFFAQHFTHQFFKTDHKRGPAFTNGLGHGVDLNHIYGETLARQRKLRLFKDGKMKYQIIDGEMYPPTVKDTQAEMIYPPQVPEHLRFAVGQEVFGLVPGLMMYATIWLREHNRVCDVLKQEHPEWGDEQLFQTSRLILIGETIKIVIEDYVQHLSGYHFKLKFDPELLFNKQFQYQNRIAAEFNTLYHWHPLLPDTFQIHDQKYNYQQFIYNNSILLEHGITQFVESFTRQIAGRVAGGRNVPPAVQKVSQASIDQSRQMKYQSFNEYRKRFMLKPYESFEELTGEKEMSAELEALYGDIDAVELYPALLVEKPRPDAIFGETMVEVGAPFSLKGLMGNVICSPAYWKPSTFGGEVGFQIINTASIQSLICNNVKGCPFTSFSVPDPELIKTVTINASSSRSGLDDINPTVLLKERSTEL

O=C1CC(c2ccccc2)Oc2ccc(O)cc21 (centres unmarked) [6-HF, 6-Hydroxyflavanone]
IC50 (5-lipoxygenase (5-LOX)): 36 µM
IC50 (cyclooxygenase-2 (COX-2)): 21.9 µM
